# In patent US11649255B2, “Indazoles as hematopoietic progenitor kinase 1 (HPK1) inhibitors and methods using same” (1st Biotherapeutics, Inc., priority 2020, dated 2023):
# Where a name gives a salt, the structure may show the parent alone.
# Target: recombinant human HPK1 (Homo sapiens (Human), UniProt Q92918)
# Assay: HPK1 kinase assay (ADP-Glo)
# Format: biochemical
# Settings: 25 μM ATP, MBP substrate
# In short: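 Activity was read as ADP formed, detected by ADP-Glo luminescence after the reaction of 5 ng recombinant human HPK1 with MBP and ATP (stocks 0.5 μg/μl and 25 μM) for 40 min at 30 °C. Buffer was Tris pH 7.5 with MgCl2, BSA and DTT, with compound in 0.5% DMSO. IC50 came from inhibition curves.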
# Sequence of recombinant human HPK1 (Q92918 whole entry): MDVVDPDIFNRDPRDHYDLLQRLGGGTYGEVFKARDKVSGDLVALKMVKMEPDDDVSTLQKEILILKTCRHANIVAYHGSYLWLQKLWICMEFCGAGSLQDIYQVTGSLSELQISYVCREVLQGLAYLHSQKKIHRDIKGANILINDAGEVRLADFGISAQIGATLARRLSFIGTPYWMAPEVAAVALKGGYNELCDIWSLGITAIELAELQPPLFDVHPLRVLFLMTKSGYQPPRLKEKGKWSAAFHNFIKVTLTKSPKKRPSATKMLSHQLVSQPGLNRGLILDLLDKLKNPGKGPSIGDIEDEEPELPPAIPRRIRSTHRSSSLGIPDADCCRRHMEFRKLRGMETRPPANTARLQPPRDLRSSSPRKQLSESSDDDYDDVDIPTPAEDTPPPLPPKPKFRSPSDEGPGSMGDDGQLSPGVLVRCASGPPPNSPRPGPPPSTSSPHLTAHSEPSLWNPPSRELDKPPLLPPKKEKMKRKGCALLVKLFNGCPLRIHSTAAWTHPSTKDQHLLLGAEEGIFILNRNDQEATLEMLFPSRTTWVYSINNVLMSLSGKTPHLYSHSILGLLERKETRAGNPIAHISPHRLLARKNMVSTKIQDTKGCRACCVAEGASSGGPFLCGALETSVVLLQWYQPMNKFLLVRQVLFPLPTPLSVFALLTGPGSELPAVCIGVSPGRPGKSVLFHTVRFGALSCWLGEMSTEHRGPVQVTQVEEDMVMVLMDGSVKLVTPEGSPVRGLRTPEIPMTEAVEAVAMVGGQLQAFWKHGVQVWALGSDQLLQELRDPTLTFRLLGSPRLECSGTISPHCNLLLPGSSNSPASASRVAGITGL
row,SMILES,IC50 [nM]
1,"C=Cc1cc(C)c(-c2ccn3nc(NC(=O)[C@@H]4C[C@@H]4F)cc3c2)c2cn[nH]c12 [Example 483, (1S,2S)-2-fluoro-N-(5-(5-methyl-7-vinyl-1H-indazol-4-yl)pyrazolo[1,5-a]pyridin-2-yl)cyclopropane-1-carboxamide]",< 100
2,"O=C(Nc1cc2cc(-c3c(Cl)c(F)cc4[nH]ncc34)ccn2n1)[C@@H]1C[C@@H]1F [Example 458, (1S,2S)-N-(5-(5-chloro-6-fluoro-1H-indazol-4-yl)pyrazolo[1,5-a]pyridin-2-yl)-2-fluorocyclopropane-1-carboxamide]",< 100
3,"Cc1c(F)cc2[nH]nc(Cl)c2c1-c1ccn2nc(NC(=O)[C@@H]3C[C@@H]3F)cc2c1 [Example 469, (1S,2S)-N-(5-(3-chloro-6-fluoro-5-methyl-1H-indazol-4-yl)pyrazolo[1,5-a]pyridin-2-yl)-2-fluorocyclopropane-1-carboxamide]",< 100
4,"CCOc1c(F)c(F)c2[nH]ncc2c1-c1ccn2nc(NC(=O)[C@@H]3C[C@@H]3F)cc2c1 [Example 611, (1S,2S)-N-(5-(5-ethoxy-6,7-difluoro-1H-indazol-4-yl)pyrazolo[1,5-a]pyridin-2-yl)-2-fluorocyclopropane-1-carboxamide]",< 100
5,"C=Cc1n[nH]c2cc(F)c(C)c(-c3ccc4nc(NC(=O)[C@@H]5C[C@@H]5F)sc4c3)c12 [Example 52, (1S,2S)-2-fluoro-N-(6-(6-fluoro-5-methyl-3-vinyl-1H-indazol-4-yl)benzo[d]thiazol-2-yl)cyclopropane-1-carboxamide]",> 1000
6,"CCc1c(F)c(N(C)C)c2[nH]ncc2c1-c1ccc2nc(NC(=O)[C@@H]3C[C@@H]3F)sc2c1 [Example 102, (1S,2S)-N-(6-(7-(dimethylamino)-5-ethyl-6-fluoro-1H-indazol-4-yl)benzo[d]thiazol-2-yl)-2-fluorocyclopropane-1-carboxamide]",< 100
7,"CCc1c(F)cc2[nH]ncc2c1-c1ccn2nc(NC(=O)[C@@H]3C[C@@H]3F)cc2c1 [Example 466, (1S,2S)-N-(5-(5-ethyl-6-fluoro-1H-indazol-4-yl)pyrazolo[1,5-a]pyridin-2-yl)-2-fluorocyclopropane-1-carboxamide]",< 100
8,"O=C(Nc1nc2ccc(-c3c(C4CC4)ccc4[nH]ncc34)cc2s1)[C@@H]1C[C@@H]1F [Example 37, (1S,2S)-N-(6-(5-cyclopropyl-1H-indazol-4-yl)benzo[d]thiazol-2-yl)-2-fluorocyclopropane-1-carboxamide]",101 to 500
9,"Cc1c(F)c(N(C)CCO)c2[nH]ncc2c1-c1ccc2nc(NC(=O)[C@@H]3C[C@@H]3F)sc2n1 [Example 204, (1S,2S)-2-fluoro-N-(5-(6-fluoro-7-((2-hydroxyethyl)(methyl)amino)-5-methyl-1H-indazol-4-yl)thiazolo[5,4-b]pyridin-2-yl)cyclopropane-1-carboxamide]",< 100
10,"CCc1c(F)c(SC)c2[nH]ncc2c1-c1ccn2nc(NC(=O)[C@@H]3C[C@@H]3F)cc2c1 [Example 513, (1S,2S)-N-(5-(5-ethyl-6-fluoro-7-(methylthio)-1H-indazol-4-yl)pyrazolo[1,5-a]pyridin-2-yl)-2-fluorocyclopropane-1-carboxamide dihydrochloride]",< 100
11,"Cc1ccc2[nH]ncc2c1-c1ccc2nc(NC(=O)OC(C)(C)C)sc2c1 [Example 3, tert-butyl (6-(5-methyl-1H-indazol-4-yl)benzo[d]thiazol-2-yl)carbamate]",> 1000
12,"Cc1ccc2[nH]ncc2c1-c1ccc2nc(NC(=O)C3CCCC3)sc2c1 [Example 10, N-(6-(5-methyl-1H-indazol-4-yl)benzo[d]thiazol-2-yl)cyclopentanecarboxamide]",> 1000
13,"CN(C)c1c(F)c(C(F)(F)F)c(-c2ccc3nc(NC(=O)[C@@H]4C[C@@H]4F)sc3c2)c2cn[nH]c12 [Example 130, (1S,2S)-N-(6-(7-(dimethylamino)-6-fluoro-5-(trifluoromethyl)-1H-indazol-4-yl)benzo[d]thiazol-2-yl)-2-fluorocyclopropane-1-carboxamide]",< 100

# Now from value to compound:
row,IC50 [nM],SMILES
1,< 100,"CC(C)c1c(F)cc2[nH]ncc2c1-c1ccc2nc(NC(=O)C3CC3)cn2c1 [Example 246, N-(6-(6-fluoro-5-isopropyl-1H-indazol-4-yl)imidazo[1,2-a]pyridin-2-yl)cyclopropanecarboxamide]"
2,< 100,"Cc1ncc(-c2c(F)c(Cl)c(-c3ccc4nc(NC(=O)[C@@H]5C[C@@H]5F)cn4c3)c3cn[nH]c23)[nH]1 [Example 442, (1S,2S)-N-(6-(5-chloro-6-fluoro-7-(2-methyl-1H-imidazol-5-yl)-1H-indazol-4-yl)imidazo[1,2-a]pyridin-2-yl)-2-fluorocyclopropane-1-carboxamide]"
3,< 100,"Cc1c(F)c(C#N)c2[nH]ncc2c1-c1ccn2nc(NC(=O)[C@@H]3C[C@@H]3F)cc2c1 [Example 582, (1S,2S)-N-(5-(7-cyano-6-fluoro-5-methyl-1H-indazol-4-yl)pyrazolo[1,5-a]pyridin-2-yl)-2-fluorocyclopropane-1-carboxamide]"
4,> 1000,"O=C(Nc1cn2cc(-c3c(Br)c(F)cc4[nH]ncc34)ccc2n1)C1CC1 [Example 231, N-(6-(5-bromo-6-fluoro-1H-indazol-4-yl)imidazo[1,2-a]pyridin-2-yl)cyclopropanecarboxamide]"
5,101 to 500,"Cc1c(F)c(S(C)(=O)=O)c2[nH]ncc2c1-c1ccc2nc(NC(=O)[C@@H]3C[C@@H]3F)sc2c1 [Example 112, (1S,2S)-2-fluoro-N-(6-(6-fluoro-5-methyl-7-(methylsulfonyl)-1H-indazol-4-yl)benzo[d]thiazol-2-yl)cyclopropane-1-carboxamide]"
6,101 to 500,"COc1ccc2[nH]ncc2c1-c1ccc2nc(NC(=O)C3CC3)cn2c1 [Example 224, N-(6-(5-methoxy-1H-indazol-4-yl)imidazo[1,2-a]pyridin-2-yl)cyclopropanecarboxamide]"
7,101 to 500,"CN1CCN(c2c(F)c(Cl)c(-c3ccc4nc(NC(=O)[C@@H]5C[C@@H]5F)cn4c3)c3cn[nH]c23)CC1 [Example 277, (1S,2S)-N-(6-(5-chloro-6-fluoro-7-(4-methylpiperazin-1-yl)-1H-indazol-4-yl)imidazo[1,2-a]pyridin-2-yl)-2-fluorocyclopropane-1-carboxamide]"
8,< 100,"CN(C)C(=O)CN(C)c1c(F)c(Cl)c(-c2ccc3nc(NC(=O)[C@@H]4C[C@@H]4F)sc3c2)c2cn[nH]c12 [Example 100, (1S,2S)-N-(6-(5-chloro-7-((2-(dimethylamino)-2-oxoethyl)(methyl)amino)-6-fluoro-1H-indazol-4-yl)benzo[d]thiazol-2-yl)-2-fluorocyclopropane-1-carboxamide]"
9,501 to 1000,"CP(C)(=O)c1c(F)c(Cl)c(-c2ccn3nc(NC(=O)[C@@H]4C[C@@H]4F)cc3c2)c2cn[nH]c12 [Example 478, (1S,2S)-N-(5-(5-chloro-7-(dimethylphosphoryl)-6-fluoro-1H-indazol-4-yl)pyrazolo[1,5-a]pyridin-2-yl)-2-fluorocyclopropane-1-carboxamide]"
10,< 100,"CCNc1c(F)c(Cl)c(-c2ccc3nc(NC(=O)[C@@H]4C[C@@H]4F)cn3c2)c2cn[nH]c12 [Example 280, (1S,2S)-N-(6-(5-chloro-7-(ethylamino)-6-fluoro-1H-indazol-4-yl)imidazo[1,2-a]pyridin-2-yl)-2-fluorocyclopropane-1-carboxamide]"
11,< 100,"Cc1c(F)c(F)c2[nH]ncc2c1-c1ccc2nc(NC(=O)[C@@H]3C[C@@H]3F)sc2n1 [Example 186, (1S,2S)-N-(5-(6,7-difluoro-5-methyl-1H-indazol-4-yl)thiazolo[5,4-b]pyridin-2-yl)-2-fluorocyclopropane-1-carboxamide]"
12,< 100,"COC1CN(c2c(F)c(Cl)c(-c3ccn4nc(NC(=O)[C@@H]5C[C@@H]5F)cc4c3)c3cn[nH]c23)C1 [Example 624, (1S,2S)-N-(5-(5-chloro-6-fluoro-7-(3-methoxyazetidin-1-yl)-1H-indazol-4-yl)pyrazolo[1,5-a]pyridin-2-yl)-2-fluorocyclopropane-1-carboxamide]"
13,< 100,"COc1c(F)c(Cl)c(-c2ccc3nc(NC(=O)[C@@H]4C[C@@H]4F)cn3c2)c2cn[nH]c12 [Example 272, (1S,2S)-N-(6-(5-chloro-6-fluoro-7-methoxy-1H-indazol-4-yl)imidazo[1,2-a]pyridin-2-yl)-2-fluorocyclopropane-1-carboxamide]"
14,> 1000,"CP(C)(=O)c1c(F)c(Cl)c(-c2ccc3nc(NC(=O)[C@@H]4C[C@@H]4F)cn3c2)c2cn[nH]c12 [Example 259, (1S,2S)-N-(6-(5-chloro-7-(dimethylphosphoryl)-6-fluoro-1H-indazol-4-yl)imidazo[1,2-a]pyridin-2-yl)-2-fluorocyclopropane-1-carboxamide]"
15,< 100,"CNC(=O)c1c(F)c(Cl)c(-c2ccc3nc(NC(=O)[C@@H]4C[C@@H]4F)sc3c2)c2cn[nH]c12 [Example 127, 5-chloro-6-fluoro-4-(2-((1S,2S)-2-fluorocyclopropane-1-carboxamido)benzo[d]thiazol-6-yl)-N-methyl-1H-indazole-7-carboxamide]"
16,< 100,"COc1cc(C)c(-c2ccc3nc(NC(=O)[C@@H]4C[C@@H]4F)cn3c2)c2cn[nH]c12 [Example 285, (1S,2S)-2-fluoro-N-(6-(7-methoxy-5-methyl-1H-indazol-4-yl)imidazo[1,2-a]pyridin-2-yl)cyclopropane-1-carboxamide]"
17,< 100,"C[S+]([O-])c1c(F)c(Cl)c(-c2ccc3nc(NC(=O)[C@@H]4C[C@@H]4F)cn3c2)c2cn[nH]c12 (stereo partly drawn) [Example 303, (1S,2S)-N-(6-(5-chloro-6-fluoro-7-(methylsulfinyl)-1H-indazol-4-yl)imidazo[1,2-a]pyridin-2-yl)-2-fluorocyclopropane-1-carboxamide]"
18,101 to 500,"O=C(Nc1nc2ccc(-c3c(Cl)c(F)cc4[nH]ncc34)cc2s1)[C@@H]1C[C@@H]1F [Example 41, (1S,2S)-N-(6-(5-chloro-6-fluoro-1H-indazol-4-yl)benzo[d]thiazol-2-yl)-2-fluorocyclopropane-1-carboxamide]"
